# From US10934283B2, “COMT inhibiting methods and compositions” (LIEBER INSTITUTE FOR BRAIN DEVELOPMENT, priority 2015, dated 2021)
# Target: T1, catechol-O-methyltransferase (COMT) (Homo sapiens, UniProt P21964)
# T1 construct: M51A variant) was expressed in HEK 293F cells
# T1 sequence (P21964 52-271 limits assumed): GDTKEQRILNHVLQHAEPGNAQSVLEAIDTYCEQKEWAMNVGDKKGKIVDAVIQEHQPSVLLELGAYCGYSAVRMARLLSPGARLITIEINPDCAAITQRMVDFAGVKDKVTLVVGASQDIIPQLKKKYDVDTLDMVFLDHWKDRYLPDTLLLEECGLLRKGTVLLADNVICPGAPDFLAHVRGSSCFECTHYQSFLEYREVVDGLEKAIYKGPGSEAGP
# Assay: COMT inhibition assay (HTRF, production of SAH from SAM)
# Type: biochemical
# Settings: table does not say MB-COMT or S-COMT
# Outline: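 Membranes from HEK293F cells expressing MB-COMT (M51A variant) incubated with 20 μM SAM and 1.5 μM dopamine plus compound (10 concentrations) for 40 min at 37 °C; S-COMT (Val158) at 0.15 ng/well used 100 μM dopamine, 15 min. SAH measured by HTRF against a standard curve; pIC50 from 4-parameter logistic fit.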
row,SMILES,Activity range (pIC50)
1,"CC(c1cc(F)cc(F)c1F)N1CCn2cc(O)c(=O)cc2C1 (stereo not drawn) [Example 75, 7-hydroxy-2-[1-(2,3,5-trifluorophenyl)ethyl]-1,2,3,4-tetrahydro-8H-pyrido[1,2-a]pyrazin-8-one]",+++ (three plus signs (+++) is associated with a pIC50 of above about 7)
2,"CC(c1ccccc1Cl)N1CCn2cc(O)c(=O)cc2C1 (stereo not drawn) [Example 76, 2-[1-(2-chlorophenyl)ethyl]-7-hydroxy-1,2,3,4-tetrahydro-8H-pyrido[1,2-a]pyrazin-8-one]",+++ (three plus signs (+++) is associated with a pIC50 of above about 7)
3,"CC(c1ccccc1OCc1ccccc1)N1CCn2cc(O)c(=O)cc2C1 (stereo not drawn) [Example 77, 2-{1-[2-(benzyloxy)phenyl]ethyl}-7-hydroxy-1,2,3,4-tetrahydro-8H-pyrido[1,2-a]pyrazin-8-one]",+++ (three plus signs (+++) is associated with a pIC50 of above about 7)
4,"CCCCC(c1ccccc1)N1CCn2cc(O)c(=O)cc2C1 (stereo not drawn) [Example 78, 7-hydroxy-2-(1-phenylpentyl)-1,2,3,4-tetrahydro-8H-pyrido[1,2-a]pyrazin-8-one]",+++ (three plus signs (+++) is associated with a pIC50 of above about 7)
5,"O=c1cc2n(cc1O)CCN(C1CCc3cccc(F)c31)C2 (stereo not drawn) [Example 79, 2-(7-fluoro-2,3-dihydro-1H-inden-1-yl)-7-hydroxy-1,2,3,4-tetrahydro-8H-pyrido[1,2-a]pyrazin-8-one]",+++ (three plus signs (+++) is associated with a pIC50 of above about 7)
6,"O=c1cc2n(cc1O)CCN(C1CC(c3ccccc3)Oc3ccccc31)C2 (stereo not drawn) [Example 80, 7-hydroxy-2-(2-phenyl-3,4-dihydro-2H-chromen-4-yl)-1,2,3,4-tetrahydro-8H-pyrido[1,2-a]pyrazin-8-one]",++ (two plus signs (++) is associated with a pIC50 of from about 6 to 7)
7,"CC(c1cccc(F)c1)N1CCn2cc(O)c(=O)cc2C1 (stereo not drawn) [Example 81, 2-[1-(3-fluorophenyl)ethyl]-7-hydroxy-1,2,3,4-tetrahydro-8H-pyrido[1,2-a]pyrazin-8-one]",++ (two plus signs (++) is associated with a pIC50 of from about 6 to 7)
8,"O=c1cc2n(cc1O)CCN(C(c1ccccc1)C1CCCC1)C2 (stereo not drawn) [Example 82, 2-[cyclopentyl(phenyl)methyl]-7-hydroxy-1,2,3,4-tetrahydro-8H-pyrido[1,2-a]pyrazin-8-one]",+++ (three plus signs (+++) is associated with a pIC50 of above about 7)
9,"COc1cccc(C(C)N2CCn3cc(O)c(=O)cc3C2)c1 (stereo not drawn) [Example 83, 7-hydroxy-2-[1-(3-methoxyphenyl)ethyl]-1,2,3,4-tetrahydro-8H-pyrido[1,2-a]pyrazin-8-one]",++ (two plus signs (++) is associated with a pIC50 of from about 6 to 7)
10,"O=c1cc2n(cc1O)CCN(C1CCc3ccccc31)C2 (stereo not drawn) [Example 84, 2-(2,3-dihydro-1H-inden-1-yl)-7-hydroxy-1,2,3,4-tetrahydro-8H-pyrido[1,2-a]pyrazin-8-one]",++ (two plus signs (++) is associated with a pIC50 of from about 6 to 7)
11,"CC(c1c(F)ccc(Cl)c1F)N1CCn2cc(O)c(=O)cc2C1 (stereo not drawn) [Example 85, 2-[1-(3-chloro-2,6-difluorophenyl)ethyl]-7-hydroxy-1,2,3,4-tetrahydro-8H-pyrido[1,2-a]pyrazin-8-one]",+++ (three plus signs (+++) is associated with a pIC50 of above about 7)
12,"O=c1cc2n(cc1O)CCN(C1CCCCc3ccccc31)C2 (stereo not drawn) [Example 86, 7-hydroxy-2-(6,7,8,9-tetrahydro-5H-benzo[7]annulen-5-yl)-1,2,3,4-tetrahydro-8H-pyrido[1,2-a]pyrazin-8-one]",+++ (three plus signs (+++) is associated with a pIC50 of above about 7)
13,"Cc1ccc(C)c(C(C)N2CCn3cc(O)c(=O)cc3C2)c1 (stereo not drawn) [Example 87, 2-[1-(2,5-dimethylphenyl)ethyl]-7-hydroxy-1,2,3,4-tetrahydro-8H-pyrido[1,2-a]pyrazin-8-one]",+++ (three plus signs (+++) is associated with a pIC50 of above about 7)
14,"O=c1cc2n(cc1O)CCN(C(Cc1ccccc1)c1ccccc1)C2 (stereo not drawn) [Example 88, 2-(1,2-diphenylethyl)-7-hydroxy-1,2,3,4-tetrahydro-8H-pyrido[1,2-a]pyrazin-8-one]",+++ (three plus signs (+++) is associated with a pIC50 of above about 7)
15,"CCC(c1ccccc1)N1CCn2cc(O)c(=O)cc2C1 (stereo not drawn) [Example 89, 7-hydroxy-2-(1-phenylpropyl)-1,2,3,4-tetrahydro-8H-pyrido[1,2-a]pyrazin-8-one]",++ (two plus signs (++) is associated with a pIC50 of from about 6 to 7)
16,"O=c1cc2n(cc1O)CCN(C1CCCc3ccccc31)C2 (stereo not drawn) [Example 90, 7-hydroxy-2-(1,2,3,4-tetrahydronaphthalen-1-yl)-1,2,3,4-tetrahydro-8H-pyrido[1,2-a]pyrazin-8-one]",+++ (three plus signs (+++) is associated with a pIC50 of above about 7)
17,"COc1ccc2c(c1)C(N1CCn3cc(O)c(=O)cc3C1)CCC2 (stereo not drawn) [Example 91, 7-hydroxy-2-(7-methoxy-1,2,3,4-tetrahydronaphthalen-1-yl)-1,2,3,4-tetrahydro-8H-pyrido[1,2-a]pyrazin-8-one]",+++ (three plus signs (+++) is associated with a pIC50 of above about 7)
18,"Cc1cccc2c1CCC2N1CCn2cc(O)c(=O)cc2C1 (stereo not drawn) [Example 92, 7-hydroxy-2-(4-methyl-2,3-dihdyro-1H-inden-1-yl)-1,2,3,4-tetrahydro-8H-pyrido[1,2-a]pyrazin-8-one]",+++ (three plus signs (+++) is associated with a pIC50 of above about 7)
19,"CCCC(c1ccccc1)N1CCn2cc(O)c(=O)cc2C1 (stereo not drawn) [Example 93, 7-hydroxy-2-(1-phenylbutyl)-1,2,3,4-tetrahydro-8H-pyrido[1,2-a]pyrazin-8-one]",++ (two plus signs (++) is associated with a pIC50 of from about 6 to 7)
20,"CC(c1ccc(C#N)cc1)N1CCn2cc(O)c(=O)cc2C1 (stereo not drawn) [Example 94, 4-[1-(7-hydroxy-8-oxo-1,3,4,8-tetrahydro-2H-pyrido[1,2-a]pyrazin-2-yl)ethyl]benzonitrile]",++ (two plus signs (++) is associated with a pIC50 of from about 6 to 7)
21,"CC(c1cccc(C#N)c1)N1CCn2cc(O)c(=O)cc2C1 (stereo not drawn) [Example 95, 3-[1-(7-hydroxy-8-oxo-1,3,4,8-tetrahydro-2H-pyrido[1,2-a]pyrazin-2-yl)ethyl]benzonitrile]",++ (two plus signs (++) is associated with a pIC50 of from about 6 to 7)
22,"CC(=O)Nc1cccc(C(C)N2CCn3cc(O)c(=O)cc3C2)c1 (stereo not drawn) [Example 96, N-{3-[1-(7-hydroxy-8-oxo-1,3,4,8-tetrahydro-2H-pyrido[1,2-a]pyrazin-2-yl)ethyl]phenyl}acetamide]",++ (two plus signs (++) is associated with a pIC50 of from about 6 to 7)
23,"CC(c1cc(F)ccc1F)N1CCn2cc(O)c(=O)cc2C1 (stereo not drawn) [Example 97, 2-[1-(2,5-difluorophenyl)ethyl]-7-hydroxy-1,2,3,4-tetrahydro-8H-pyrido[1,2-a]pyrazin-8-one]",+++ (three plus signs (+++) is associated with a pIC50 of above about 7)
24,"CC(c1ccccc1F)N1CCn2cc(O)c(=O)cc2C1 (stereo not drawn) [Example 98, 2-[1-(2-fluorophenyl)ethyl]-7-hydroxy-1,2,3,4-tetrahydro-8H-pyrido[1,2-a]pyrazin-8-one]",++ (two plus signs (++) is associated with a pIC50 of from about 6 to 7)
